Results as given in patent US9302999B2, “Substituted triazoles as herbicides” (E. I. DU PONT DE NEMOURS AND COMPANY, priority 2012, dated 2016).

How the values were obtained:
Type in all cases: in vivo
[1] = system: chickweed (common chickweed, Stellaria media); test: Test C postemergence: chickweed
Outline: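 Visual ratings of 0 (no effect) to 100 (complete control) were made against controls 13-15 days after a postemergence spray, with plants kept in a greenhouse. Plants were 2-18 cm tall (1- to 4-leaf stage) in Redi-Earth peat/vermiculite medium at treatment.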

corn (Zea mays) [2] = test: Test C pre-/postemergence: corn
Outline: (§1)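 Visual injury scored 0–100 (100 = complete control) against untreated controls after 13–15 greenhouse days. Surfactant-containing solvent formulations applied either to soil after sowing (loam/sand) or over 1- to 4-leaf plants, 2–18 cm tall.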

wild oat (Avena fatua) = test: Test C pre-/postemergence: wild oat; settings: Postemergence
Outline: as §1

[3] = system: velvetleaf (Abutilon theophrasti); test: Test C pre-/postemergence: velvetleaf
Outline: as §1

corn (Zea mays) [4] = test: Test A pre-/postemergence: corn
Outline: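 Injury was scored visually on a 0 (no effect) to 100 (complete control) scale versus untreated controls roughly ten days after treatment in the greenhouse. Compounds, formulated in surfactant-containing non-phytotoxic solvent, went on as soil-directed preemergence spray or postemergence to one- to two-leaf plants 2–10 cm tall.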

[5] = system: large crabgrass (Digitaria sanguinalis); test: Test C pre-/postemergence: large crabgrass
Outline: as §1

[6] = system: ragweed (common ragweed, Ambrosia elation); test: Test C pre-/postemergence: ragweed
Outline: as §1

[7] = system: foxtail, giant (giant foxtail, Setaria faberii); test: Test C pre-/postemergence: foxtail, giant
Outline: as §1

[8] = system: nutsedge, yellow (yellow nutsedge, Cyperus esculentus); test: Test C pre-/postemergence: nutsedge, yellow
Outline: as §1

[9] = system: ducksalad (Heteranthera limosa); test: Test B flooded paddy: ducksalad; settings: Flood; 125 g ai/ha; applied to paddy water at 2-leaf stage; visually evaluated after 13 to 15 days
Outline: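 Each compound is applied to the floodwater of pots holding 2-leaf seedlings, water standing 3 cm over the soil throughout. Plants stay in a greenhouse 13 to 15 days before visual scoring against controls from 0 (no effect) to 100 (complete control).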

kochia (Kochia scoparia) = test: Test C pre-/postemergence: kochia; settings: Postemergence
Outline: as §1

[10] = 31 g ai/ha, scale 0 to 100 (0 no effect, 100 complete control)
[11] = 62 g ai/ha, scale 0 to 100 (0 no effect, 100 complete control)
[12] = 125 g ai/ha, scale 0 to 100, 0 no effect, 100 complete control
[13] = Postemergence, 31 g ai/ha, scale 0 to 100 (0 no effect, 100 complete control)
[14] = Postemergence, 62 g ai/ha, scale 0 to 100 (0 no effect, 100 complete control)
[15] = Postemergence, 125 g ai/ha, scale 0 to 100, 0 no effect, 100 complete control
[16] = Postemergence, 250 g ai/ha, scale 0 to 100
[17] = Preemergence, 31 g ai/ha, scale 0 (no effect) to 100 (complete control)
[18] = Preemergence, 62 g ai/ha, scale of 0 to 100, 0 is no effect, 100 is complete control
[19] = Preemergence, 125 g ai/ha, scale 0 to 100, 0 no effect, 100 complete control
[20] = Preemergence, 250 g ai/ha, scale 0 to 100, 0 no effect, 100 complete control
[21] = 250 g ai/ha, scale 0 to 100 (0 no effect, 100 complete control)
[22] = Postemergence, 250 g ai/ha, scale 0 to 100 (0 no effect, 100 complete control)

Compound: CCOc1nn(-c2ccc(Cl)cc2)nc1Cc1ccnc(C(F)(F)F)c1 [Compound 188]
- Plant response rating, Chickweed [1, 10]: 80
- Plant response rating, Chickweed [1, 11]: 90
- Plant response rating, Chickweed [1, 12]: 90
- Plant response rating, Chickweed ([1]; 250 g ai/ha, scale 0 to 100): 95
- Plant response rating, Corn (corn (Zea mays) [2]; [13]): 10
- Plant response rating, Corn (corn (Zea mays) [2]; [14]): 20
- Plant response rating, Corn (corn (Zea mays) [2]; [15]): 20
- Plant response rating, Corn (corn (Zea mays) [2]; [16]): 35
- Plant response rating, Corn (corn (Zea mays) [2]; [17]): 5
- Plant response rating, Corn (corn (Zea mays) [2]; [18]): 5
- Plant response rating, Corn (corn (Zea mays) [2]; [19]): 10
- Plant response rating, Corn (corn (Zea mays) [2]; [20]): 20
- Plant response rating, Oat, Wild (wild oat (Avena fatua); [10]): 45
- Plant response rating, Oat, Wild (wild oat (Avena fatua); [11]): 60
- Plant response rating, Oat, Wild (wild oat (Avena fatua); [12]): 60
- Plant response rating, Oat, Wild (wild oat (Avena fatua); [21]): 90
- Plant response rating, Velvetleaf [3, 13]: 50
- Plant response rating, Velvetleaf [3, 14]: 65
- Plant response rating, Velvetleaf [3, 15]: 70
- Plant response rating, Velvetleaf [3, 22]: 70
- Plant response rating, Velvetleaf [3, 17]: 45
- Plant response rating, Velvetleaf [3, 18]: 65
- Plant response rating, Velvetleaf [3, 19]: 85
- Plant response rating, Velvetleaf [3, 20]: 90
- Plant response rating, Corn (corn (Zea mays) [4]; Postemergence, 125 g ai/ha, 0 to 100 scale, 0 is no effect, 100 is complete control): 40
- Corn plant response rating (corn (Zea mays) [4]; Postemergence, 500 g ai/ha, 0 to 100 scale, 0 is no effect, 100 is complete control): 50
- Plant response rating, Corn (corn (Zea mays) [4]; Preemergence, 125 g ai/ha, 0 to 100 scale where 0 is no effect and 100 is complete control): 10
- Plant response rating, Corn (corn (Zea mays) [4]; Preemergence, 500 g ai/ha, 0 to 100 scale (0 no effect, 100 complete control)): 20
- Plant response rating, Crabgrass, Large [5, 13]: 50
- Plant response rating, Crabgrass, Large [5, 14]: 85
- Plant response rating, Crabgrass, Large [5, 15]: 95
- Plant response rating, Crabgrass, Large [5, 16]: 95
- Plant response rating, Crabgrass, Large [5, 17]: 98
- Plant response rating, Crabgrass, Large [5, 18]: 100
- Plant response rating, Crabgrass, Large [5, 19]: 100
- Plant response rating, Crabgrass, Large [5, 20]: 100
- Plant response rating, Ragweed [6, 13]: 65
- Plant response rating, Ragweed [6, 14]: 75
- Plant response rating, Ragweed [6, 15]: 85
- Plant response rating, Ragweed [6, 22]: 85
- Plant response rating, Foxtail, Giant [7, 13]: 98
- Plant response rating, Foxtail, Giant [7, 14]: 98
- Plant response rating, Foxtail, Giant [7, 15]: 98
- Plant response rating, Foxtail, Giant [7, 16]: 100
- Plant response rating, Foxtail, Giant [7, 17]: 100
- Plant response rating, Foxtail, Giant [7, 18]: 100
- Plant response rating, Foxtail, Giant [7, 19]: 100
- Plant response rating, Foxtail, Giant [7, 20]: 100
- Plant response rating, Nutsedge, Yellow [8, 13]: 10
- Plant response rating, Nutsedge, Yellow [8, 14]: 10
- Plant response rating, Nutsedge, Yellow [8, 15]: 10
- Plant response rating, Nutsedge, Yellow [8, 22]: 15
- Plant response rating, Nutsedge, Yellow [8, 17]: 5
- Plant response rating, Nutsedge, Yellow [8, 18]: 5
- Plant response rating, Nutsedge, Yellow [8, 19]: 5
- Plant response rating, Nutsedge, Yellow [8, 20]: 20
- Plant response rating, Ducksalad (0 to 100 scale, 0 is no effect, 100 is complete control) [9]: 90
- Plant response rating, Kochia (kochia (Kochia scoparia); [10]): 70
- Plant response rating, Kochia (kochia (Kochia scoparia); [11]): 90
- Plant response rating, Kochia (kochia (Kochia scoparia); [12]): 90
- Plant response rating, Kochia (kochia (Kochia scoparia); [21]): 90

Compound: CCOc1nn(-c2ccc(C(F)(F)F)cc2)nc1Cc1ccnc(C(F)(F)F)c1 [Compound 164, 4-[[5-ethoxy-2-[4-(trifluoromethyl)phenyl]-2H-1,2,3-triazol-4-yl]methyl]-2-(trifluoromethyl)pyridine]
- Plant response rating, Chickweed [1, 10]: 10
- Plant response rating, Chickweed [1, 11]: 40
- Plant response rating, Chickweed [1, 12]: 45
- Plant response rating, Chickweed ([1]; 250 g ai/ha, scale 0 to 100): 45
- Plant response rating, Corn (corn (Zea mays) [2]; [13]): 15
- Plant response rating, Corn (corn (Zea mays) [2]; [14]): 15
- Plant response rating, Corn (corn (Zea mays) [2]; [15]): 20
- Plant response rating, Corn (corn (Zea mays) [2]; [16]): 20
- Plant response rating, Corn (corn (Zea mays) [2]; [17]): 0
- Plant response rating, Corn (corn (Zea mays) [2]; [18]): 5
- Plant response rating, Corn (corn (Zea mays) [2]; [19]): 10
- Plant response rating, Corn (corn (Zea mays) [2]; [20]): 10
- Plant response rating, Oat, Wild (wild oat (Avena fatua); [10]): 5
- Plant response rating, Oat, Wild (wild oat (Avena fatua); [11]): 5
- Plant response rating, Oat, Wild (wild oat (Avena fatua); [12]): 5
- Plant response rating, Oat, Wild (wild oat (Avena fatua); 250 g ai/ha, scale 0 to 100): 10
- Plant response rating, Velvetleaf [3, 13]: 25
- Plant response rating, Velvetleaf [3, 14]: 30
- Plant response rating, Velvetleaf [3, 15]: 40
- Plant response rating, Velvetleaf [3, 16]: 40
- Plant response rating, Velvetleaf [3, 17]: 10
- Plant response rating, Velvetleaf [3, 18]: 10
- Plant response rating, Velvetleaf [3, 19]: 30
- Plant response rating, Velvetleaf [3, 20]: 70
- Corn plant response rating (crop injury, 0 = no effect, 100 = complete kill) at 125 g/ha (corn (Zea mays) [4]; Zea mays, post-emergence, 240 h, Postemergence, 125 g ai/ha, 0 to 100 scale, 0 is no effect, 100 is complete control): 30%
- plant injury at 500 g/ha (corn (Zea mays) [4]; Zea mays, post-emergence, 240 h, Postemergence, 500 g ai/ha, 0 to 100 scale, 0 is no effect, 100 is complete control, read-out: Corn plant response rating): 40%
- Corn plant response rating (crop injury, 0 = no effect, 100 = complete kill) at 125 g/ha (corn (Zea mays) [4]; Zea mays, pre-emergence, 240 h, Preemergence, 125 g ai/ha, 0 to 100 scale where 0 is no effect and 100 is complete control): 30%
- Corn plant response rating (crop injury, 0 = no effect, 100 = complete kill) at 500 g/ha (corn (Zea mays) [4]; Zea mays, pre-emergence, 240 h, Preemergence, 500 g ai/ha, 0 to 100 scale (0 no effect, 100 complete control)): 30%
- Plant response rating, Crabgrass, Large [5, 13]: 5
- Plant response rating, Crabgrass, Large [5, 14]: 5
- Plant response rating, Crabgrass, Large [5, 15]: 10
- Plant response rating, Crabgrass, Large [5, 16]: 10
- Plant response rating, Crabgrass, Large [5, 17]: 70
- Plant response rating, Crabgrass, Large [5, 18]: 75
- Plant response rating, Crabgrass, Large [5, 19]: 98
- Plant response rating, Crabgrass, Large [5, 20]: 100
- Plant response rating, Ragweed [6, 13]: 50
- Plant response rating, Ragweed [6, 14]: 50
- Plant response rating, Ragweed [6, 16]: 60
- Plant response rating, Ragweed [6, 17]: 20
- Plant response rating, Ragweed [6, 18]: 20
- Plant response rating, Ragweed [6, 19]: 25
- Plant response rating, Ragweed [6, 20]: 30
- Plant response rating, Foxtail, Giant [7, 13]: 10
- Plant response rating, Foxtail, Giant [7, 14]: 20
- Plant response rating, Foxtail, Giant [7, 15]: 20
- Plant response rating, Foxtail, Giant [7, 16]: 35
- Plant response rating, Foxtail, Giant [7, 17]: 50
- Plant response rating, Foxtail, Giant [7, 18]: 65
- Plant response rating, Foxtail, Giant [7, 19]: 98
- Plant response rating, Foxtail, Giant [7, 20]: 100
- Plant response rating, Nutsedge, Yellow [8, 13]: 0
- Plant response rating, Nutsedge, Yellow [8, 14]: 5
- Plant response rating, Nutsedge, Yellow [8, 15]: 5
- Plant response rating, Nutsedge, Yellow [8, 16]: 10
- Plant response rating, Nutsedge, Yellow [8, 17]: 0
- Plant response rating, Nutsedge, Yellow [8, 18]: 0
- Plant response rating, Nutsedge, Yellow [8, 19]: 0
- Plant response rating, Nutsedge, Yellow [8, 20]: 0
- Plant response rating, Ducksalad (0 to 100 scale, 0 is no effect, 100 is complete control) [9]: 0
- Plant response rating, Kochia (kochia (Kochia scoparia); [10]): 40
- Plant response rating, Kochia (kochia (Kochia scoparia); [11]): 40
- Plant response rating, Kochia (kochia (Kochia scoparia); [12]): 40
- Plant response rating, Kochia (kochia (Kochia scoparia); 250 g ai/ha, scale 0 to 100): 90
